# How the values were obtained:
# RIPK1 kinase [1] = target: T1, RIPK1 kinase (Homo sapiens, UniProt Q13546); test: In vitro RIPK1 kinase activity IC50 assay (ADP-Glo); assay type: biochemical; conditions: ATP 10 μM; MBP substrate 100 μg/mL; 8 concentration points; read-out: IC50 range of compounds for RIPK1 kinase activity
# T1 construct: purchased Promega VA7593
# T1 sequence (Q13546 1-671): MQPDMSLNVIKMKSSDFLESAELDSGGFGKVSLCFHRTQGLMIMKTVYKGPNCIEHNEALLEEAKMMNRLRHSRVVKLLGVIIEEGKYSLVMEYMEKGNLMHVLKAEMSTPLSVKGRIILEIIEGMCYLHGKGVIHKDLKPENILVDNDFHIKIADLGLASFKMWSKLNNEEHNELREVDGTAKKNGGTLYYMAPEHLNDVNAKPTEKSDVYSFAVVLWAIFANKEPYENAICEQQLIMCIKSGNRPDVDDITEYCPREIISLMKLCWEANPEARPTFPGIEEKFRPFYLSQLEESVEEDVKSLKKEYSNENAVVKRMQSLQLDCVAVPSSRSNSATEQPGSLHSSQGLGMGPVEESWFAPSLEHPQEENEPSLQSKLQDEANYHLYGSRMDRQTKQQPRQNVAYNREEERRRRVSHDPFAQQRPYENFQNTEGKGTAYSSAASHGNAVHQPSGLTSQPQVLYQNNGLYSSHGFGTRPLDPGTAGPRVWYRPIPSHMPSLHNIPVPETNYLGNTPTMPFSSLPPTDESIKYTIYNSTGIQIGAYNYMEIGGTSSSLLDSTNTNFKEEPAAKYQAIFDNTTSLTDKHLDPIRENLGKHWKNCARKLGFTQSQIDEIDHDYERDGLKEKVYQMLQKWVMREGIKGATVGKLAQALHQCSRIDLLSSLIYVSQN
# In short: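 Human RIPK1 preincubated 15 min at room temperature with compound (8-point 1:5 dilution series, 1% DMSO in kinase buffer D). Reaction then ran 1 h with 10 μM ATP and 100 μg/mL MBP substrate; ADP measured by ADP-Glo luminescence, IC50 from four-parameter nonlinear fit.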
# RIPK1 kinase [2] = target: T1, RIPK1 kinase; test: In vitro RIPK1 kinase activity assay (ADP-Glo), inhibition by compounds at 1 μM; assay type: biochemical; conditions: compound 1 μM; ATP 10 μM; MBP substrate 100 μg/mL; read-out: RIPK1 kinase activity inhibition rate range
# In short: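 Compound and RIPK1 were preincubated 15 min at room temperature, then reacted 1 h with 10 μM ATP and 100 μg/mL MBP substrate in kinase buffer D. ADP formed was measured by ADP-Glo luminescence and converted to percent inhibition of kinase activity.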
# U937 cells = test: Inhibition rate of compound (1 μM) on necroptosis of U937 cells (TSZ-induced, CellTiter-Glo); assay type: cell-based; conditions: TSZ (hTNF-α, SM-164, Z-VAD-FMK) 20 hours
# In short: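 U937 cells were pretreated 15 min with compound, then necroptosis was triggered with TSZ (Z-VAD-FMK, hTNF-α, SM-164) for 20 h at 37° C. Viability was read as ATP by CellTiter-Glo luminescence, and inhibition (%) was taken relative to no-TSZ and TSZ-only wells.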
IC50 (RIPK1 kinase [1]),inhibition at 1 µM (RIPK1 kinase [2]),SMILES,Inhibition rate range of compounds (1 μM) on U937 cell necroptosis (U937 cells)
< 100 nM,≥ 75%,"COC(=O)C1(C#Cc2ccc3c(c2)N(C)C(=O)[C@@H](NC(=O)C(=O)NCCc2ccccc2)CO3)CC1 [Example 96, methyl (S)-1-((5-methyl-4-oxo-3-(2-oxo-2-(phenethylamino)acetamido)-2,3,4,5-tetrahydrobenzo[b][1,4]oxazepin-7-yl)ethynyl)cyclopropane-1-carboxylate]",B (B: 50-89%)
< 100 nM,≥ 75%,"CN1C(=O)[C@@H](NC(=O)C(=O)NCCc2cccs2)COc2ccccc21 [Example 97, (S)—N^1-(5-methyl-4-oxo-2,3,4,5-tetrahydrobenzo[b][1,4]oxazepin-3-yl)-N^2-(2-(thiophen-2-yl)ethyl)oxalamide]",A (A: ≥90%)
< 100 nM,≥ 75%,"CN1C(=O)[C@@H](NC(=O)C(=O)NCCc2ccsc2)COc2ccccc21 [Example 98, (S)—N-(5-methyl-4-oxo-2,3,4,5-tetrahydrobenzo[b][1,4]oxazepin-3-yl)-N^2-(2-(thiophen-3-yl)ethyl)oxalamide]",A (A: ≥90%)
